Assay results: patent US20260193271A1, “PAN-KRAS INHIBITOR COMPOUND” (ADLAI NORTYE BIOPHARMA CO., LTD., priority 2022, published 2026)

Tests used:
AsPC-1 (G12D) = test: In vitro cell proliferation inhibition test (CellTiter-Glo), AsPC-1; type: cell-based; details: KRAS (p.G12D), 72 h co-incubation
Procedure, shortened: (§1)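 IC50 was derived by four-parameter fitting of normalized CellTiter-Glo signals. These were measured after 72 h co-incubation with compound at 10 concentrations, 3-fold serial, final maximum 10 μM. Plating was 1000-5000 cells/well, adjusted to growth rate, with overnight attachment at 37 °C, 5% CO2.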

SW480 (G12V) = test: In vitro cell proliferation inhibition test (CellTiter-Glo), SW480; type: cell-based; details: SW480 colon cell line, KRAS (p.G12V), 72 h co-incubation
Procedure, shortened: as §1

[1] = Homo sapiens, ASPC1, AsPC-1 pancreas cell line

Compound | IC50 (AsPC-1 (G12D); [1]) | IC50 (SW480 (G12V); Homo sapiens) | IC50 (AsPC-1 (G12D); AsPC-1 pancreas cell line) | IC50 (SW480 (G12V))
CCn1c(-c2cc(-c3ccc4c(c3)CCN(C)C4)cnc2[C@H](C)OC)c2c3cc(ccc31)-c1csc(n1)C[C@H](NC(=O)[C@H]1[C@H](C)[C@@H]1C)C(=O)N1CCC[C@H](N1)C(=O)OCC(C)(C)C2 (atropisomer, axis not shown) [Compound 3, (1r,2R,3S)-N-((6^3S,4S,Z)-1^1-ethyl-1^2-(2-((S)-1-methoxyethyl)-5-(2-methyl-1,2,3,4-tetrahydroisoquinolin-6-yl)pyridin-3-yl)-10,10-dimethyl-5,7-dioxo-6^1,6^2,6^3,6^4,6^5,6^6-hexahydro-1^1H-8-oxa-2(4,2)-thiazola-1(5,3)-indola-6(1,3)-pyridazinacycloundecaphane-4-yl)-2,3-dimethylcyclopropane-1-carboxamide] | 0.18 nM | 0.33 nM |  | 
(1S,2S)-N-((6^3S,4S,Z)-1^1-ethyl-1^2-(6′-((S)-1-methoxyethyl)-6-(morpholinomethyl)-[2,3′-bipyridin]-5′-yl)-10,10-dimethyl-5,7-dioxo-6^1,6^2,6^3,6^4,6^5,6^6-hexahydro-1^1H-8-oxa-2(4,2)-thiazola-1(5,3)-indola-6(1,3)-pyridazinacycloundecaphane-4-yl)-2-methylcyclopropane-1-carboxamide [Compound 13′] |  |  | 302 nM | 236 nM
CCn1c(-c2cc(-c3cc(CN4CCOCC4)on3)cnc2[C@H](C)OC)c2c3cc(ccc31)-c1csc(n1)C[C@H](NC(=O)[C@H]1C[C@@H]1C)C(=O)N1CCC[C@H](N1)C(=O)OCC(C)(C)C2 (atropisomer, axis not shown) [Compound 22, (1S,2S)-N-((6^3S,4S,Z)-1^1-ethyl-1^2-(2-((S)-1-methoxyethyl)-5-(5-(morpholinomethyl)isoxazol-3-yl)pyridin-3-yl)-10,10-dimethyl-5,7-dioxo-6^1,6^2,6^3,6^4,6^5,6^6-hexahydro-1^1H-8-oxa-2(4,2)-thiazola-1(5,3)-indola-6(1,3)-pyridazinacycloundecaphane-4-yl)-2-methylcyclopropane-1-carboxamide] | 11 nM | 10 nM |  | 
CCn1c(-c2cc(-c3ccc4c(c3)CN(C)C4)cnc2C(C)OC)c2c3cc(ccc31)-c1csc(n1)CC(NC(=O)C1CC1C)C(=O)N1CCCC(N1)C(=O)OCC(C)(C)C2 [Compound 2′, (1S,2S)-N-((6^3S,4S,Z)-1^1-ethyl-1^2-(2-((S)-1-methoxyethyl)-5-(2-methylisoindolin-5-yl)pyridin-3-yl)-10,10-dimethyl-5,7-dioxo-6^1,6^2,6^3,6^4,6^5,6^6-hexahydro-1^1H-8-oxa-2(4,2)-thiazola-1(5,3)-indola-6(1,3)-pyridazinacycloundecaphane-4-yl)-2-methylcyclopropane-1-carboxamide] |  |  | 2500 nM | 820 nM
CCn1c(-c2cc(-c3ccc(CN4CC[C@@H](O)C4)cn3)cnc2[C@H](C)OC)c2c3cc(ccc31)-c1csc(n1)C[C@H](NC(=O)[C@H]1C[C@@H]1C)C(=O)N1CCC[C@H](N1)C(=O)OCC(C)(C)C2 (atropisomer, axis not shown) [Compound 47, (1S,2S)-N-((6^3S,4S,Z)-1^1-ethyl-1^2-(5-(((R)-3-hydroxypyrrolidin-1-yl)methyl)-6′-((S)-1-methoxyethyl)-[2,3′-bipyridin]-5′-yl)-10,10-dimethyl-5,7-dioxo-6^1,6^2,6^3,6^4,6^5,6^6-hexahydro-1^1H-8-oxa-2(4,2)-thiazola-1(5,3)-indola-6(1,3)-pyridazinacycloundecaphane-4-yl)-2-methylcyclopropane-1-carboxamide] | 2.9 nM | 6.1 nM |  | 
CO[C@@H](C)c1ncc(-c2cnc(CN3CCOCC3)nc2)cc1-c1c2c3cc(ccc3n1CC(F)(F)F)-c1csc(n1)C[C@H](NC(=O)[C@H]1[C@H](C)[C@@H]1C)C(=O)N1CCC[C@H](N1)C(=O)OCC(C)(C)C2 (atropisomer, axis not shown) [Compound 44, (1r,2R,3S)-N-((6^3S,4S,Z)-1^2-(2-((S)-1-methoxyethyl)-5-(2-(morpholinomethyl)pyrimidin-5-yl)pyridin-3-yl)-10,10-dimethyl-5,7-dioxo-1^1-(2,2,2-trifluoroethyl)-6^1,6^2,6^3,6^4,6^5,6^6-hexahydro-1^1H-8-oxa-2(4,2)-thiazola-1(5,3)-indola-6(1,3)-pyridazinacycloundecaphane-4-yl)-2,3-dimethylcyclopropane-1-carboxamide] | 0.26 nM | 0.35 nM |  | 
CCn1c(-c2cc(-c3cc([C@@H]4CN(C)CCO4)on3)cnc2[C@H](C)OC)c2c3cc(ccc31)-c1csc(n1)C[C@H](NC(=O)[C@H]1[C@H](C)[C@@H]1C)C(=O)N1CCC[C@H](N1)C(=O)OCC(C)(C)C2 (atropisomer, axis not shown) [Compound 27, (1r,2R,3S)-N-((6^3S,4S,Z)-1^1-ethyl-1^2-(2-((S)-1-methoxyethyl)-5-(5-((S)-4-methylmorpholin-2-yl)isoxazol-3-yl)pyridin-3-yl)-10,10-dimethyl-5,7-dioxo-6^1,6^2,6^3,6^4,6^5,6^6-hexahydro-1^1H-8-oxa-2(4,2)-thiazola-1(5,3)-indola-6(1,3)-pyridazinacycloundecaphane-4-yl)-2,3-dimethylcyclopropane-1-carboxamide] | 1.1 nM | 1.8 nM |  | 
CCn1c(-c2cc(-c3cc4c(n(C)c3=O)CCN(C)C4)cnc2[C@H](C)OC)c2c3cc(ccc31)-c1csc(n1)C[C@H](NC(=O)[C@H]1C[C@@H]1C)C(=O)N1CCC[C@H](N1)C(=O)OCC(C)(C)C2 (atropisomer, axis not shown) [Compound 52, (1S,2S)-N-((6^3S,4S,Z)-1^2-(5-(1,6-dimethyl-2-oxo-1,2,5,6,7,8-hexahydro-1,6-naphthyridin-3-yl)-2-((S)-1-methoxyethyl)pyridin-3-yl)-1^1-ethyl-10,10-dimethyl-5,7-dioxo-6^1,6^2,6^3,6^4,6^5,6^6-hexahydro-1^1H-8-oxa-2(4,2)-thiazola-1(5,3)-indola-6(1,3)-pyridazinacycloundecaphane-4-yl)-2-methylcyclopropane-1-carboxamide] | 0.21 nM | 1.2 nM |  | 
CCn1c(-c2cc(-c3cc(CNC)on3)cnc2C(C)OC)c2c3cc(ccc31)-c1csc(n1)CC(NC(=O)C1CC1C)C(=O)N1CCCC(N1)C(=O)OCC(C)(C)C2 [Compound 23′, (1S,2S)-N-((6^3S,4S,Z)-1^1-ethyl-1^2-(2-((S)-1-methoxyethyl)-5-(5-((methylamino)methyl)isoxazol-3-yl)pyridin-3-yl)-10,10-dimethyl-5,7-dioxo-6^1,6^2,6^3,6^4,6^5,6^6-hexahydro-1^1H-8-oxa-2(4,2)-thiazola-1(5,3)-indola-6(1,3)-pyridazinacycloundecaphane-4-yl)-2-methylcyclopropane-1-carboxamide] |  |  | 2370 nM | 1340 nM
CCn1c(-c2cc(-c3cnn(C4CN(C)C4)c3)cnc2[C@H](C)OC)c2c3cc(ccc31)-c1csc(n1)C[C@H](NC(=O)[C@H]1[C@H](C)[C@@H]1C)C(=O)N1CCC[C@H](N1)C(=O)OCC(C)(C)C2 (atropisomer, axis not shown) [Compound 17, (1r,2R,3S)-N-((6^3S,4S,Z)-1^1-ethyl-1^2-(2-((S)-1-methoxyethyl)-5-(1-(1-methylazetidin-3-yl)-1H-pyrazol-4-yl)pyridin-3-yl)-10,10-dimethyl-5,7-dioxo-6^1,6^2,6^3,6^4,6^5,6^6-hexahydro-1^1H-8-oxa-2(4,2)-thiazola-1(5,3)-indola-6(1,3)-pyridazinacycloundecaphane-4-yl)-2,3-dimethylcyclopropane-1-carboxamide] | 0.31 nM | 2.5 nM |  | 
CCn1c(-c2cc(-c3cn(CC4CCN(C)CC4)nn3)cnc2C(C)OC)c2c3cc(ccc31)-c1csc(n1)C[C@H](NC(=O)[C@H]1C[C@@H]1C)C(=O)N1CCC[C@H](N1)C(=O)OCC(C)(C)C2 (stereo partly drawn) [Compound 65, (1S,2S)-N-((6^3S,4S,Z)-1^1-ethyl-1^2-(2-((S)-1-methoxyethyl)-5-(1-((1-methylpiperidin-4-yl)methyl)-1H-1,2,3-triazol-4-yl)pyridin-3-yl)-10,10-dimethyl-5,7-dioxo-6^1,6^2,6^3,6^4,6^5,6^6-hexahydro-1^1H-8-oxa-2(4,2)-thiazola-1(5,3)-indola-6(1,3)-pyridazinacycloundecaphane-4-yl)-2-methylcyclopropane-1-carboxamide] | 12 nM | 150 nM |  | 
(1S,2S)-N-((6^3S,4S,Z)-1^1-ethyl-1^2-(2-((S)-1-methoxyethyl)-5-(1-((R)-1-methylpyrrolidin-3-yl)-1H-pyrazol-4-yl)pyridin-3-yl)-10,10-dimethyl-5,7-dioxo-6^1,6^2,6^3,6^4,6^5,6^6-hexahydro-1^1H-8-oxa-2(4,2)-thiazola-1(5,3)-indola-6(1,3)-pyridazinacycloundecaphane-4-yl)-2-methylcyclopropane-1-carboxamide [Compound 16′] |  |  | 2280 nM | 265 nM
CCn1c(-c2cc(-c3cnc(CN4CCN5CCOC[C@@H]5C4)nc3)cnc2[C@H](C)OC)c2c3cc(ccc31)-c1csc(n1)C[C@H](NC(=O)[C@H]1C[C@@H]1C)C(=O)N1CCC[C@H](N1)C(=O)OCC(C)(C)C2 (atropisomer, axis not shown) [Compound 61, (1S,2S)-N-((6^3S,4S,Z)-1^1-ethyl-1^2-(5-(2-(((S)-hexahydropyrazino[2,1-c][1,4]oxazin-8(1H)-yl)methyl)pyrimidin-5-yl)-2-((S)-1-methoxyethyl)pyridin-3-yl)-10,10-dimethyl-5,7-dioxo-6^1,6^2,6^3,6^4,6^5,6^6-hexahydro-1^1H-8-oxa-2(4,2)-thiazola-1(5,3)-indola-6(1,3)-pyridazinacycloundecaphane-4-yl)-2-methylcyclopropane-1-carboxamide] | 19 nM | 20 nM |  | 
